Among the data in patent US5606037A, “Processes antineoplastic heteronaphthoquinones” (BioChem Pharma Inc., priority 1995, dated 1997) are IC50 values, retold here.

Structures can show the parent of a compound that is named as a salt.

What all share (format): cell-based, Human
For assay [1], the system named is SKOV3 (Ovarian adenocarcinoma). Description: In vitro cytotoxicity, microculture tetrazolium (MTT) assay, SKOV3. The following applies: Homo sapiens, SK-OV-3; SKOV3 ovarian adenocarcinoma; 48 h with compound, further 48 h, MTT; Table 1. The essentials:
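Cells plated overnight, then exposed to compound (1:3 dilutions, 100 μM to 1.7 nM, quadruplicate) 48 h at 37 °C, followed by 48 h in fresh medium. MTT 4 h, formazan extracted in DMSO/Sorensen's buffer pH 10.5, A570; four-parameter logistic fit on 0–100% survival scale.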

For assay [2], the system named is HT 29 (Colon adenocarcinoma). Description: In vitro cytotoxicity, microculture tetrazolium (MTT) assay, HT29. The conditions noted are these: Homo sapiens, HT-29, 48 h with compound, further 48 h, Table 1. In a few lines: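 HT29 cells exposed to compound (1:3 series, 100 μM to 1.7 nM, quadruplicate) for 48 h at 37 °C, then 48 h in fresh medium. Viability by MTT reduction, formazan absorbance at 570 nm; four-parameter logistic fit on 0-100% survival scale.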

The test system of assay [3] is Lox (Melanoma). In words: In vitro cytotoxicity, microculture tetrazolium (MTT) assay, LOX. The following applies: Homo sapiens, 48 h with compound, further 48 h, Table 1. In a few lines: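 LOX melanoma cells, 1,500–4,000 per well, exposed to compound (1:3 dilutions, 100 μM to 1.7 nM) for 48 h at 37° C., then 48 h in fresh medium. MTT reduction read at 570 nm; four-parameter logistic fit normalized to 0–100% survival.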

Assay [4] concerns SKVLB (Ovarian; multidrug resistant). In words: In vitro cytotoxicity, microculture tetrazolium (MTT) assay, SKVLB. The conditions noted are these: Homo sapiens; SKVLB multidrug resistant ovarian; 48 h with compound, further 48 h, MTT; Table 1. In a few lines: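 Multidrug-resistant SKVLB ovarian cells, 1,500–4,000 per well, exposed to compound (1:3 dilutions, 100 μM to 1.7 nM, quadruplicate) for 48 h at 37 °C, then 48 h in fresh medium. Viability by MTT reduction, formazan read at 570 nm; four-parameter logistic fit on a 0–100% survival scale.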

Assay [5] deals with T47D (Ductal carcinoma of breast). In words: In vitro cytotoxicity, microculture tetrazolium (MTT) assay, T47D. The conditions noted are these: Homo sapiens, 48 h with compound, further 48 h, Table 1. Here is the method: The microculture tetrazolium assay was used to test in vitro cytotoxicity. This assay is described in Plumb, J. A. et al., 1989 Cancer Research 49, 4435-4440, which is herein incorporated by reference. The cytotoxicity of compounds towards tumor cells is measured in vitro using the assay. This assay method is based upon the ability of live, but not dead cells to reduce the yellow water soluble dye 3-(4,5-dimethylthiazol-2-yl)-2,5-diphenyltetrazolium bromide (MTT) to its water insoluble purple formazan product.
Human Tumor Cell lines, used were:
T47D (Ductal carcinoma of breast)--ATCC catalog #HTB-133.
The cells were maintained in exponential growth in culture in minimal essential media (MEM) supplemented with non-essential amino acids, and containing 15% (v/v) fetal. bovine serum, 5 mM L-glutamine, 1 mM sodium pyruvate, and 0.1 U/ml insulin. All cell lines were grown at 37° C. in an atmosphere of 5% CO2 in air.
MTT: 2 mg/ml in phosphate buffered saline (stable at 4° C. in dark for 1 week).
Sorensen's buffer: 0.1M glycine/NaOH, pH 10.5, containing 0.1M NaCl.
Test compounds: 20 mM in DMSO and diluted to a final concentration of 200 μM in culture medium before use.
For each assay, doxorubicin is included as an inter-assay standard. This allows us to monitor the behaviour of the assay in general, and in particular, to check that the SKVLB line has maintained its resistant phenotype.
The assays are carried out in 96-well (8 well×12 well) microtiter plates. Serial dilutions of the compound are tested along the length of the plate. A 1:3 serial dilution of compound in culture medium covers a concentration range from 100 μM to 1.7 nM. Each concentration of compound is tested in quadruplet, allowing two compounds to be tested per plate. Wells containing no cells (blank) and cells with no test compound (control) are included on each plate.
Cells are plated out in 100 μl of culture medium in the microtiter plates at a density of around 1,500-4,000 cells per well. The plates are incubated overnight to allow the cells to become adherent after which the test compound is added (100 μl of appropriate dilution per well). The cells are incubated with test compound at 37° C. for 48 h after which the compound is replaced with fresh medium. After a further 48 h incubation at 37° C., 50 μl of MTT solution (2 mg/ml) is added to each well. The plates are incubated in the dark for 4 h at 37° C. after which the medium is removed. The MTT formazan product is extracted from the cells by the addition of 200 μl DMSO followed by 50 μl of Sorensen's buffer. The plates are shaken briefly and the absorbance at 570 nm is read using a Molecular Devices UV max plate reader. Curves are fit to the MTT assay data using a four parameter logistic equation, and the data are normalized to fit a 0% to 100% survival scale.

On to `CC(C)[C@@H]1CC2=C(C(=O)c3ccccc3C2=O)[C@@H](O[C@H]2C[C@H](NC(=O)C(F)(F)F)[C@H](O)[C@H](C)O2)O1` [BCH2053, (1'S, 1R, 3S)-5,10-dioxo-3-isopropyl-1-(2',3',6'-trideoxy-3'-trifluoroacetamido-L-lyxohexopyranose)-3,4,5,10-tetrahydro-1H-naphtho-[2,3-c]-pyran], for which the IC50 in assay [1] worked out at 4.73 µM; in assay [2], 14 µM; in assay [3], 3.25 µM; in assay [4], 21.2 µM; in assay [5], 12.3 µM.

As to `CC(=O)[C@@H]1CC2=C(C(=O)c3ccccc3C2=O)[C@@H](O[C@@H]2O[C@@H](C)[C@@H](O)[C@@H](NC(=O)C(F)(F)F)C2I)O1` (stereo partly drawn) [BCH2023, (1'S,1R,3S)-methyl-(1-[2',3',6'-trideoxy-2'-iodo-3'-trifluoroacetamido-4'-hydroxy-L-lyxohexopyranose]-5,10-dioxo-3,4,5,10-tetrahydronaphtho-[2,3-c]-pyran-3-yl) ketone], the IC50 is 0.73 µM in assay [1]; 0.98 µM in assay [2]; 0.67 µM in assay [3]; 3.2 µM in assay [4]; 5.5 µM in assay [5].

Consider `CO[C@@H]1O[C@H](C(=O)Nc2ccccc2)CC2=C1C(=O)c1ccccc1C2=O` (relative stereo) [BCH2042, (1,3-cis)-anline-(1-methoxy-5,10-dioxo-3,4,5,10-tetrahydro-1H-naphtho-[2,3-c]-pyran)-3-carboxamide], for which the IC50 stood at 3.8 µM in assay [1]; 1.2 µM in assay [2]; 2.22 µM in assay [3]; 13.2 µM in assay [4]; 8 µM in assay [5].

Consider `COC(=O)[C@@]1(C)CC2=C(C(=O)c3ccccc3C2=O)[C@H](O[C@H]2C[C@H](NC(=O)C(F)(F)F)[C@H](O)[C@H](C)O2)O1` [BCH2076, (1'S,1S,3R)-1-(3'-trifluoroacetamido-2',3',6'-trideoxy-lyxo-L-hexopyranose)-3-methoxycarbonyl-3-methyl-3,4,5,10-tetrahydro-5,10-dioxo-naphtho-[2,3-c]pyran], for which the IC50 in assay [1] came to 1.43 µM; in assay [2], 2.6 µM; in assay [3], 1.8 µM; in assay [4], 12.4 µM; in assay [5], 6.53 µM.

In the case of `CC(=O)[C@H]1CC2=C(C(=O)c3ccccc3C2=O)[C@H](O[C@@H]2O[C@@H](C)[C@@H](O)[C@@H](O)[C@H]2I)O1` [BCH2014, (1'S,1S,3R)-methyl-(1-[2',6'-dideoxy-3',4'-dihydroxy-2'-iodo-L-lyxohexopyranose]-5,10-dioxo-3,4,5,10-tetrahydronaphtho[2,3-c]-pyran-3-yl)-ketone], the IC50 in assay [1] came to 21.5 µM; in assay [2], 61.3 µM; in assay [3], 35.9 µM; in assay [4] it was 39.8 µM; in assay [5] it was 61.8 µM.

Take `COCC1(COC)CC2=C(C(=O)c3ccccc3C2=O)[C@H](O[C@H]2C[C@H](NC(=O)C(F)(F)F)[C@H](O)[C@H](C)O2)O1` [BCH1697]: the IC50 in assay [1] came to 3.7 µM; in assay [2] it was 11 µM; in assay [3], 5.32 µM; in assay [4], 13.2 µM; in assay [5] it was 18 µM.

In the case of `COC(=O)[C@@H](N)COC1OC(C(C)=O)CC2=C1C(=O)c1ccccc1C2=O` (mixture of isomers) [BCH1654, (1S, 2'S, 3R) and (1R, 2'S, 3S)-methyl-(1-[O-serinemethyl ester]-5,10-dioxo-3,4,5,10-tetrahydronaphtaleno[2,3-C]pyran-3-yl) ketone hydrochloride], the IC50 in assay [1] turned out to be 0.71 µM; in assay [2], 3.58 µM; in assay [3], 1.19 µM; in assay [4], 3.73 µM; in assay [5], 1.59 µM.

As to `Nc1nc(C2CC3=C(CO2)C(=O)c2ccccc2C3=O)cs1` (centres unmarked) [BCH1189], the IC50 in assay [1] stood at 6.5 µM; in assay [2] it was 16.6 µM; in assay [3] it was 14.3 µM; in assay [4], 26.6 µM; in assay [5], 12.5 µM.

Consider `COC(=O)[C@]1(C)CC2=C(C(=O)c3ccccc3C2=O)[C@H](O[C@H]2C[C@H](NC(=O)C(F)(F)F)[C@H](O)[C@H](C)O2)O1` [BCH2081, (1'S, 1S, 3S)-1-(3'-trifluoroacetamido-2',3',6'-trideoxy-lyxohexopyranose)-3-methoxycarbonyl-3-methyl-5,10-dioxo-4,5,10-trihydro-1H-naphtho-[2,3-c]-pyran], for which the IC50 is 1.3 µM in assay [1]; 3.8 µM in assay [2]; 2.7 µM in assay [3]; 19 µM in assay [4]; 7.4 µM in assay [5].

With `CC(=O)[C@@H]1CC2=C(C(=O)c3ccccc3C2=O)[C@@H](O[C@H]2C[C@H](NC(=O)C(F)(F)F)[C@H](O)[C@H](C)O2)S1` [BCH2037, (1'S,1S,3S)-1-(3'-trifluoroacetamido-2',3',6'-trideoxy-L-lyxohexopyranose)-5,10-dioxo-3,4,5,10-tetrahydro-1H-naphtho-[2,3-c]-thiopyran], the concentration for half-maximal inhibition (IC50) in assay [1] was 0.59 to 5.09 µM; in assay [2] it was 1.1 to 4.25 µM; in assay [3], 0.54 to 0.816 µM; in assay [4], 3.8 to 4.73 µM; in assay [5], 2.2 to 2.29 µM.

Regarding `CC(=O)C1CC2=C(CO1)C(=O)c1ccc(O)cc1C2=O` (centres unmarked) [BCH1129, Methyl (7-hydroxy-5,10-dioxo-3,4,5,10-tetrahydronaphtho [2,3-C]pyran-3-yl) ketone], the IC50 in assay [1] was 73.3 µM; in assay [2], 63.2 µM; in assay [3], 88.2 µM; in assay [4], over 100 µM; in assay [5] it was 59.4 µM.

For the compound `CC(=O)[C@H]1CC2=C(C(=O)c3ccc(O)cc3C2=O)[C@H](O[C@H]2C[C@H](NC(=O)C(F)(F)F)[C@H](O)[C@H](C)O2)O1` [BCH1180, (1'S,1S,3R)-Methyl (5,10-dioxo-1-(2',3',6'-trideoxy-3'-trifluoroacetamido-L-lyxohexopyranose)-7-hydroxy-3,4,5, 10-tetrahydro[2,3-C]pyran-3-yl) ketone], the IC50 in assay [1] amounted to 0.851 µM; in assay [2] it was 0.468 µM; in assay [3], 3.33 µM; in assay [4], 8.68 µM; in assay [5], 7.61 µM.

Turning to `CC(=O)[C@H]1CC2=C(C(=O)c3ccccc3C2=O)[C@H](O[C@H]2C[C@H](NC(=O)C(F)(F)F)[C@H](Br)[C@H](C)O2)O1` [BCH2047, (1S,3R,1'S)-Methyl-(1-[2',3',4',6'-tetradeoxy-3'-trifluoroacetamido-4'-bromo-L-lyxohexopyranose]-5,10-dioxo-3,4,5,10-tetrahydronaphthaleno-[2,3-c]pyran-3-yl) ketone], the half-maximal inhibitory concentration (IC50) came out at 0.017 µM in assay [1]; 0.0041 µM in assay [2]; 0.021 µM in assay [3]; 0.523 µM in assay [4]; 0.151 µM in assay [5].
